US8440442B2, “Method of assaying 5-FU” (Myriad Genetics, Inc, priority 2009, dated 2013)

Key:
[1] = target: T1, dihydropyrimidine dehydrogenase (DPD) (Homo sapiens, UniProt Q12882); test: 5-Vinyluracil, 5-iodouracil and gimeracil as stabilizer of 5-FU in spiked donor blood; type: biochemical; details: 500 ng/mL 5-FU; 5-iodouracil 10/40 μg/mL, 5-vinyluracil 5/20 μg/mL, gimeracil 300/1,200 ng/mL; 45 minutes room temperature (FIG. 3)
T1 construct: from tissue; host or cells: donor whole blood (K2EDTA), plasma separated from it, and WBC/buffy coat
T1 sequence (Q12882 4-1025): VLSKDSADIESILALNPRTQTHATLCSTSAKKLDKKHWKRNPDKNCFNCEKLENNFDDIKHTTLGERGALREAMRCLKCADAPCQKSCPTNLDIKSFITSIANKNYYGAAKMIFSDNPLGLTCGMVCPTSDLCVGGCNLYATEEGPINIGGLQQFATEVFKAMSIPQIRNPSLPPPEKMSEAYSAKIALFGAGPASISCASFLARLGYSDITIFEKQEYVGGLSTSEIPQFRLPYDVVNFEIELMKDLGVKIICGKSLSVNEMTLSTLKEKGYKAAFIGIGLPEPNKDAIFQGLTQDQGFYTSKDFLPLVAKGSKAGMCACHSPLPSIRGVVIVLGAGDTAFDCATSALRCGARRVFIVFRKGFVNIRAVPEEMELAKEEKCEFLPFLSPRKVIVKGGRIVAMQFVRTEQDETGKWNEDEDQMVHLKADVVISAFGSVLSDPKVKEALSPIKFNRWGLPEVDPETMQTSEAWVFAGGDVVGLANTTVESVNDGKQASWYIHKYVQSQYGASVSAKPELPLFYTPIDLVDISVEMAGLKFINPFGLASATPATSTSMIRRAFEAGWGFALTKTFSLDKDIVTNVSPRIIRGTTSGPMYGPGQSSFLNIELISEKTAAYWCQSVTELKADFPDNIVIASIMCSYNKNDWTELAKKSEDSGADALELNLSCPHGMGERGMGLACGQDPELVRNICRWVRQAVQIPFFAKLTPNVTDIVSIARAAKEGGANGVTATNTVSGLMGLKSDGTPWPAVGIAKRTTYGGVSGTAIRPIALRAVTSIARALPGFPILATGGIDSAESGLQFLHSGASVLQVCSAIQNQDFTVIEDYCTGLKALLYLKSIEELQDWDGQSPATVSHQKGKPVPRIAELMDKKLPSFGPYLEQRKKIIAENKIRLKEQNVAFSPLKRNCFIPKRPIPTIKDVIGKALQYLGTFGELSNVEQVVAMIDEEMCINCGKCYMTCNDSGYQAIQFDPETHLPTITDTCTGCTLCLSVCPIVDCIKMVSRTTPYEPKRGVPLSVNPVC
Procedure: (§1) In the following illustrative examples, 5-FU was measured using an antibody-based agglutination assay on the Olympus AU680 Analyzer using an antibody disclosed in U.S. Pat. No. 7,205,116. Specifically, the concentration of 5-FU in a sample is determined based on the absorbance of a sample, which is determined by the amount of aggregation by the nanoparticles. The system requires two reagents, which when mixed in the absence of free 5-FU will form large aggregates of nanoparticles and scatter light to result in a higher absorption value. In the presence of free 5-FU, the agglutination reaction becomes somewhat inhibited and scattering of light is less, causing a lower absorption value. The instrument is calibrated twice monthly, and a curve is generated (Absorbance vs. 5-FU concentration). Absorbance values from individual samples are compared against this curve to determine concentration.
Generally in the agglutination assay, 95 μl of a buffer containing 5-FU-labeled amino-dextran is pipetted to a cuvette, followed by 7 μL of a filtered plasma sample. The sample and reagent are mixed and then incubated for about 3.5 minutes. 95 μl of 5-FU antibody-conjugated nanoparticles is pipetted into the cuvette and mixed. The complete reaction incubates for about 6.2 minutes. A series of 27 measurements at 600 nm are taken at regular intervals by the AU680 analyzer throughout this process, and 5-FU concentration is calculated using the measurements from two specific time points.
Three tubes of blood (spray-on K2EDTA tubes, 10 mL) was drawn from each of six donors, and blood tubes were gently inverted several times to mix anti-coagulant. Blood was pooled and kept separate by donor. An aliquot of each blood sample was transferred to a new conical tube, and a calculated volume of stock 5-FU (at 200 ng/μL) was spiked into each blood sample for a final concentration of 500 ng/mL 5-FU. Each blood sample was aliquotted to a set of four tubes (5 mL blood per tube). Each set of tubes was different, but included a combination of the conditions below: […]

[2] = target: T1, dihydropyrimidine dehydrogenase (DPD); test: Eniluracil as stabilizer of 5-FU in spiked donor blood (5-FU agglutination immunoassay); type: biochemical; details: eniluracil 4000 or 1000 ng/mL final in blood, DMSO; 500 ng/mL 5-FU; room temperature 45 minutes or 24 hours (FIG. 2)
Procedure: as §1
Generally in the agglutination assay, 95 μl of a buffer containing 5-FU-labeled amino-dextran is pipetted to a cuvette, followed by 7 μL of a filtered plasma sample. The sample and reagent are mixed and then incubated for about 3.5 minutes. […] A series of 27 measurements at 600 nm are taken at regular intervals by the AU680 analyzer throughout this process, and 5-FU concentration is calculated using the measurements from two specific time points. […]

Row | Structure (SMILES) | stabilizing 5-FU in blood samples [1] | preventing degradation of 5-FU in blood samples [2]
1 | O=c1[nH]cc(I)c(=O)[nH]1 [5-iodouracil] | effective | 
2 | C=Cc1c[nH]c(=O)[nH]c1=O [5-vinyluracil] | effective | 
3 | C#Cc1c[nH]c(=O)[nH]c1=O [eniluracil] |  | effective
